Assay results as given in patent US4861772A, “Method and composition to treat panic syndrome” (Hoffmann-La Roche Inc., priority 1988, dated 1989).

Columns and labels:
[1] = Plasma level after peroral intake of compound A in tablet form; assay type: in vivo; settings: human, po, 1 mg perorally in tablet form
Experimental: (§1) After 1 mg of compound A has been taken perorally in tablet form a maximal active substance level is already reached after 45 minutes. Clinically relevant effects, that is, effects noticed by patients, generally occur already after 10 minutes.

[2] = test system: patients with panic syndrome; experiment: Side effects in the clinical study in patients with panic syndrome; assay type: in vivo, human
Experimental: (§2) The clinical study is a double-blind, parallel group study in which in each case 12 patients with panic syndrome were treated either with compound A, that is, tablets containing 0.5 mg of active substance or with a corresponding placebo. The course of the trial was the following. After examining the inclusion and exclusion criteria and recording the basic data, the patients each received 20 tablets with instructions to take one tablet at the approach or beginning of the next panic attack. The medicaments previously used had been withdrawn before the commencement of the study. In the case of a satisfactory outcome of treatment the initial dosage was to be used a once more. Then, for the second investigation, the investigator was to be consulted. In the case of an unsatisfactory outcome of therapy, the dosage in the case of the second panic attack was to be increased to two tablets, which dosage was to be repeated in the case of success and, in the case of failure, was to be increased to three tablets. […] Patients with ineffective medication were to be discharged from the trial. Patients in whom an effective dosage had been found would use that dose in the next twelve panic states. In cases in which withdrawal phenomena of the preceding treatment played a role, the twelve treatments of the main treatment phase can be extended with an additional twelve dosages in a further phase, additional phase.
(§3) During the treatment, the patients were required to carry a treatment day book. On the basis of the remarks contained therein, the statements of the patients as well as specific observations, the results of the trial at the end of the titration phase (investigation 2), at the end of the main treatment phase (investigation 3) and, if desired, at the end of the additional phase (investigation 4) were introduced into the trial data by the investigator. The following psychiatric scales were filled out as standardized comparative investigations at all points in time of the trial: anxiety scale according to Covi, depression scale according to Raskin, self-evaluated anxiety scale (SAS) and self-evaluated depression scale (SDS) according to Zung, as well as the withdrawal symptom scale (WSS) according to Merz & Ballmer.
The following side effects were found:
^3 MRA = "Mean Risk per Administration", i.e. the risk at which the
particular side effect is incurred by a single intake of the medicament.
From the list of side effects, it is evident that the […] has less benzodiazepine-typical side effects of the sedative and motor type.

[3] = test system: patients with panic syndrome; experiment: Double-blind, parallel group clinical study in patients with panic syndrome (end point analysis); assay type: in vivo, human
Experimental: The results of a clinical study will be referred to as an example of the use and the effect of discontinuous therapy of panic attacks by means of compound A.
as §2, §3
In each case, 12 patients were treated with compound A or placebo. In the group treated with compound A, 7 were male and 5 female with an average age of 33±5.4 years, of which--according to the DSM-III classification--2 suffered from panic syndrome without agoraphobia and 10 suffered from panic syndrome with agoraphobia. The diagnosis of a major depression was also established in 6 cases.
The average duration of the disorder amounted to 98±83 months in the group treated with compound A and to 143±164 months in the placebo group. The weekly frequency of panic states was 5.6±3.2 in the group treated with compound A and 7.6±5.6 in the placebo group. In this calculation, a runaway in the placebo group which fell outside the average value and the five-fold standard deviation was not taken into consideration. The average duration of the panic attacks was 27±17 minutes in the group treated with compound A and 25±16 minutes in the placebo group. Nine (9) patients treated with compound A and 10 placebo patients were able to predict attacks with an average prediction time of 11±12 minutes in the group treated with compound A and 10±7 minutes in the placebo group.
Because of the different lengths of the total treatment, average duration 43±27 days in the group treated with compound A and 28±32 days in the placebo group and because of the unequal distribution of the exclusions and drop-outs, the following results are presented in the form of an end point analysis: […]

[4] = test system: patients; experiment: Clinically relevant effects noticed by patients (onset); assay type: in vivo, human; settings: 1 mg perorally in tablet form; generally
Experimental: as §1

CC(C)(C)OC(=O)c1ncn2c1[C@@H]1CCCN1C(=O)c1c(Br)cccc1-2 [Compound A, t-butyl (S)-8-bromo-11,12,13,13a-tetrahydro-9-oxo-9H-imidazo[1,5-a]pyrrolo[2,1-c][1,4]benzodiazepine-1-carboxylate]
Tmax ([1]; read-out: time to maximal active substance level (converted)): 0.75 h
half-life ([1]; read-out: β-half life (converted)): 2.25 h
quality of the observed side effects ([2]; CGI evaluation, in total): only of minimal quality
tolerance ([2]; all together): satisfactory tolerance
Coarse muscular relaxation, No. Pat. ([2]; number of patients, of 12): 1
Dopiness, No. Pat. ([2]; number of patients, of 12): 5
Drowsiness, No. Pat. ([2]; number of patients, of 12): 9
Dry mouth, No. Pat. ([2]; number of patients, of 12): 1
Headache, No. Pat. ([2]; number of patients, of 12): 1
Nausea, No. Pat. ([2]; number of patients, of 12): 1
Slurred speech/"heavy tongue", No. Pat. ([2]; number of patients, of 12): 2
Unsteadiness when walking or standing, No. Pat. ([2]; number of patients, of 12): 4
Coarse muscular relaxation, No. Reg. ([2]; number registered): 2
Dopiness, No. Reg. ([2]; number registered): 60
Drowsiness, No. Reg. ([2]; number registered): 45
Dry mouth, No. Reg. ([2]; number registered): 2
Headache, No. Reg. ([2]; number registered): 2
Nausea, No. Reg. ([2]; number registered): 9
Slurred speech/"heavy tongue", No. Reg. ([2]; number registered): 5
Unsteadiness when walking or standing, No. Reg. ([2]; number registered): 13
duration of side effects as part of the total treatment period ([2]; on average): 0.96±1.01%
total duration of side effects ([2]; on average): 7.8 ± 7.6 h
Coarse muscular relaxation, MRA (Mean Risk per Administration) ([2]; risk per single intake): 0.7%
Dopiness, MRA (Mean Risk per Administration) ([2]; risk per single intake): 21.8%
Drowsiness, MRA (Mean Risk per Administration) ([2]; risk per single intake): 16.4%
Dry mouth, MRA (Mean Risk per Administration) ([2]; risk per single intake): 0.7%
Headache, MRA (Mean Risk per Administration) ([2]; risk per single intake): 0.7%
Nausea, MRA (Mean Risk per Administration) ([2]; risk per single intake): 3.3%
Slurred speech/"heavy tongue", MRA (Mean Risk per Administration) ([2]; risk per single intake): 1.8%
Unsteadiness when walking or standing, MRA (Mean Risk per Administration) ([2]; risk per single intake): 4.7%
antipanic activity ([3]; conclusion from the clinical comparison): specific antipanic activity
Δ frequency of attack per week (n) ([3]; n = 12, p < 0.05 vs placebo): -2.6 ± 3.3 n
Average treatment period ([3]; n = 12, p < 0.05 vs placebo (Mann-Whitney U test)): 43 ± 27 days
Δ withdrawal symptom scale (WSS) ([3]; n.s. vs placebo): -3.9 ± 6.8
Δ Covi anxiety scale (outside evaluation) ([3]; p < 0.001 vs placebo): 3.3 ± 3.2
Δ Raskin depression scale (outside evaluation) ([3]; p < 0.001 vs placebo): 1.9 ± 3.2
Δ Zung anxiety scale (self evaluation) ([3]; p < 0.001 vs placebo): 6.4 ± 8.5
Δ Zung depression scale (self evaluation) ([3]; p < 0.001 vs placebo): 4.5 ± 9.0
Average improvement in phobias ([3]; scale as initial intensity, p < 0.001 vs placebo): 2.2 ± 1.0
Reduction in the intensity of attack ([3]; score 4 = complete, 3 = strong, 2 = weak, 1 = no effect, p < 0.01 vs placebo): 3.5 ± 0.9
Average number of tablets at the end of treatment ([3]; tablets of 0.5 mg, n = 12, p < 0.001 vs placebo): 1.4 ± 0.9
secondary panic symptoms in untreated intervals between successive panic attacks ([3]; vs placebo): reduced significantly better than by placebo
time to clinically relevant effects (noticed by patients) [4]: 10 min
